Results: PubChem BioAssay (NCI)
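Growth conditions: 96-well plates. Treatment: test compound, 48 hours, 5 concentrations. Analysis: linear interpolation between bracketing concentrations; unreached endpoints set to highest concentration. The concentration for 50% growth inhibition is given as GI50. At the TGI there is no net growth.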

Experiments:
Assay in all cases: NCI-60 cell line screen, 48 h
[1] = tested on: ACHN renal
[2] = tested on: HOP-92 NSCLC
[3] = tested on: A498 renal
[4] = tested on: HT29 colon
[5] = tested on: SK-MEL-28 melanoma
[6] = tested on: CCRF-CEM leukemia
[7] = tested on: RPMI-8226 leukemia
[8] = tested on: M14 melanoma
[9] = tested on: UACC-257 melanoma
[10] = tested on: MDA-MB-435
[11] = tested on: K-562 leukemia
[12] = tested on: SW-620 colon
[13] = tested on: SF-268 CNS
[14] = tested on: SNB-19 CNS
[15] = tested on: DU-145 prostate
[16] = tested on: T-47D breast
[17] = tested on: NCI-H460 lung
[18] = tested on: HCC-2998 colon
[19] = tested on: OVCAR-3 ovarian
[20] = tested on: MCF7 breast
[21] = tested on: COLO 205 colon
[22] = tested on: NCI-H522 lung
[23] = tested on: SN12C renal
[24] = tested on: HL-60(TB) leukemia
[25] = tested on: UO-31 renal
[26] = tested on: TK-10 renal
[27] = tested on: EKVX NSCLC
[28] = tested on: MDA-MB-231 breast
[29] = tested on: OVCAR-5 ovarian
[30] = tested on: SK-OV-3 ovarian
[31] = tested on: NCI/ADR-RES ovarian
[32] = tested on: LOX IMVI melanoma
[33] = tested on: 786-0 renal
[34] = tested on: SNB-75 CNS
[35] = tested on: NCI-H23 lung
[36] = tested on: UACC-62 melanoma
[37] = tested on: SF-295 CNS
[38] = tested on: HS 578T breast
[39] = tested on: KM12 colon
[40] = tested on: IGROV1 ovarian
[41] = tested on: HCT-15 colon
[42] = tested on: SK-MEL-2 melanoma
[43] = tested on: U251 CNS
[44] = tested on: A549 NSCLC
[45] = tested on: MOLT-4 leukemia
[46] = tested on: SK-MEL-5 melanoma
[47] = tested on: SF-539 CNS
[48] = tested on: HOP-62 NSCLC
[49] = tested on: OVCAR-4 ovarian
[50] = tested on: BT-549 breast
[51] = tested on: PC-3 prostate
[52] = tested on: OVCAR-8 ovarian
[53] = tested on: MALME-3M melanoma
[54] = tested on: HCT-116 colon
[55] = tested on: SR leukemia
[56] = tested on: NCI-H226 lung
[57] = tested on: CAKI-1 renal

## COc1cc(/C=C/C(=O)c2nc3cc(F)ccc3nc2C)cc(OC)c1OC
[1]
  GI50: 10.3 µM
  TGI: > 100 µM
[2]
  GI50: 2.81 µM
  TGI: > 100 µM
[3]
  GI50: 5.78 µM
  TGI: > 100 µM
[4]
  GI50: 3.75 µM
  TGI: > 100 µM
[5]
  GI50: 7.91 µM
  TGI: > 60.3 µM
[6]
  GI50: 1.85 µM
  TGI: > 21 µM
[7]
  GI50: 0.327 µM
  TGI: 3.07 µM
[8]
  GI50: > 43.2 µM
  TGI: > 100 µM
[9]
  GI50: 5.51 µM
  TGI: > 100 µM
[10]
  GI50: 3.55 µM
  TGI: > 100 µM
[11]
  GI50: 2.01 µM
  TGI: > 23.9 µM
[12]
  GI50: 5.34 µM
  TGI: > 100 µM
[13]
  GI50: 7.01 µM
  TGI: > 100 µM
[14]
  GI50: > 51.1 µM
  TGI: > 100 µM
[15]
  GI50: 3.09 µM
  TGI: > 100 µM
[16]
  GI50: 4.91 µM
  TGI: > 100 µM
[17]
  GI50: 4.05 µM
  TGI: > 100 µM
[18]
  GI50: > 100 µM
  TGI: > 100 µM
[19]
  GI50: 2.59 µM
  TGI: > 28.1 µM
[20]
  GI50: 2.3 µM
  TGI: > 100 µM
[21]
  GI50: 7.56 µM
  TGI: > 100 µM
[22]
  GI50: 6.98 µM
  TGI: > 100 µM
[23]
  GI50: 6.3 µM
  TGI: > 100 µM
[24]
  GI50: 1.78 µM
[25]
  GI50: 7.07 µM
  TGI: > 100 µM
[26]
  GI50: > 100 µM
  TGI: > 100 µM
[27]
  GI50: > 78.7 µM
  TGI: > 100 µM
[28]
  GI50: 8.49 µM
  TGI: > 100 µM
[29]
  GI50: > 100 µM
  TGI: > 100 µM
[30]
  GI50: > 100 µM
  TGI: > 100 µM
[31]
  GI50: 14.2 µM
  TGI: > 91.1 µM
[32]
  GI50: 2.84 µM
  TGI: > 22.1 µM
[33]
  GI50: > 23.2 µM
  TGI: > 100 µM
[34]
  GI50: 9.3 µM
  TGI: > 100 µM
[35]
  GI50: > 47.9 µM
  TGI: > 100 µM
[36]
  GI50: 5.57 µM
  TGI: > 100 µM
[37]
  GI50: > 25.2 µM
  TGI: > 100 µM
[38]
  GI50: 5.34 µM
  TGI: > 100 µM
[39]
  GI50: 3.49 µM
  TGI: > 100 µM
[40]
  GI50: 11.4 µM
  TGI: > 100 µM
[41]
  GI50: 2.94 µM
  TGI: > 100 µM
[42]
  GI50: 34.5 µM
  TGI: > 100 µM
[43]
  GI50: 3.54 µM
  TGI: > 100 µM
[44]
  GI50: 7.37 µM
  TGI: > 100 µM
[45]
  GI50: 1.99 µM
  TGI: > 22.3 µM
[46]
  GI50: 5.04 µM
  TGI: > 100 µM
[47]
  GI50: > 100 µM
  TGI: > 100 µM
[48]
  GI50: > 27.8 µM
  TGI: > 100 µM
[49]
  GI50: > 40.7 µM
  TGI: > 100 µM
[50]
  GI50: 8.12 µM
  TGI: > 100 µM
[51]
  GI50: 6.05 µM
  TGI: > 100 µM
[52]
  GI50: 5.38 µM
  TGI: > 100 µM
[53]
  GI50: 1.71 µM
  TGI: > 100 µM
[54]
  GI50: 3.59 µM
  TGI: > 51.6 µM
[55]
  GI50: 1.85 µM
  TGI: > 100 µM
[56]
  GI50: > 100 µM
  TGI: > 100 µM
[57]
  GI50: 7.42 µM
  TGI: > 100 µM
